Test results taken from PMC8851282, “Senolysis induced by 25-hydroxycholesterol targets CRYAB in multiple cell types” (iScience, 2022).

What was measured:
[1] = system: Cdkn1a and Cryab mRNA in gastrocnemius and soleus muscles; assay: qRT-PCR of senescence markers and Cryab in muscles of Doxo-treated mice given 25HC; format: in vivo, mouse; conditions: mice, 4 mg/kg Doxo i.p., 5 injections, versus PBS
Method: (§1) Figure 8 25HC induces senolysis in vivo in Doxo-treated mice (A) Timeline of 25HC treatment in Doxo-treated mice. Mice were given 4 mg/kg Doxo or PBS for 5 daily injections[A1], then injected with 25HC or vehicle for 7 consecutive days. (B) Mass of gastrocnemius muscles. Muscle weight was normalized to body weight. (C) Cdkn2a and Cryab mRNA levels in gastrocnemius (Gastroc) and soleus (Sol) muscles. RNA was collected 28–30 d after the first treatment with Doxo. mRNA levels were quantified by qRT-PCR, and normalized to actin mRNA levels. The average value of PBS-vehicle was set at 1. (D) 15-d-PGJ2 analysis in urine. Urine was collected at 24 h after the first treatment with 25HC or HbCD. p values versus PBS-Veh or Doxo-Veh are obtained using Tukey's multiple comparisons test. ∗p < 0.05, ∗∗p < 0.01, p < 0.001, and ∗∗∗∗p < 0.0001.
Male C57BL/6J mice (3–4 months old) were purchased from the Jackson Laboratory. We performed five i.p. injections with 4 mg/kg of Doxo (Tocris Bioscience, Product# 2252) for each injection over 10 days (Figure 6A). Therefore, we injected a total of 20 mg/kg of Doxo/mouse over 10 days. We used EFT-PBS (EMD Millipore, Product# TMS-012-A) as a control. To test effects of 25HC (Tocris Bioscience, Product# 5741) on Doxo-treated mice, we prepared three experimental groups (n=15 for each group): 1) PBS+HβCD vehicle (22.5%), 2) Doxo (20 mg/kg)+vehicle (22.5%), 3) Doxo (20 mg/kg)+25HC (50 mg/kg) (Figure 6A); 25HC was dissolved in 22.5% 2-hydroxypropyl-beta-cyclodextrin (HβCD) (Tocris Bioscience, Product 0708). On the Day 5 after the last Doxo/PBS injections, the mice were treated with either 25HC (50 mg/kg) or vehicle by i.p. injections for 7 consecutive days (Figure 6A). 12 hr after the first 25HC or vehicle treatments, urine was collected (Figure 6A) from each group to test for the senolysis marker 15-d-PGJ2. […] Senescence markers p16^INK4a, p21^Cip1 and CRYAB expression was analyzed on gastrocnemius (Gastroc), soleus (So), tibialis anterior (TA), visceral fat (VF), kidney (Ki), liver (Li), lung (Lu), heart (He), and skin (Sk) samples by qRT-PCR. […]

[2] = Body weight and gastrocnemius muscle weight in Doxo-treated mice; format: in vivo, mouse; conditions: 4 mg/kg Doxo i.p., 5 injections, versus PBS
Method: as §1
Male C57BL/6J mice (3–4 months old) were purchased from the Jackson Laboratory. We performed five i.p. injections with 4 mg/kg of Doxo (Tocris Bioscience, Product# 2252) for each injection over 10 days (Figure 6A). Therefore, we injected a total of 20 mg/kg of Doxo/mouse over 10 days. […] Senescence markers p16^INK4a, p21^Cip1 and CRYAB expression was analyzed on gastrocnemius (Gastroc), soleus (So), tibialis anterior (TA), visceral fat (VF), kidney (Ki), liver (Li), lung (Lu), heart (He), and skin (Sk) samples by qRT-PCR.

[3] = system: FAPs; assay: Senescence induction by Doxo in cultured primary FAPs (qRT-PCR of marker genes, growth rate); format: cell-based, mouse; conditions: 250 or 100 nM Doxo
[4] = system: SCs; assay: Senescence induction by Doxo in cultured primary SCs (qRT-PCR of marker genes, growth rate); format: cell-based, mouse; conditions: 250 or 100 nM Doxo
[5] = system: senescent cells; assay: Senescent cell burden in mice treated with Doxo or Doxo + ABT; conditions: four-month-old male mice; Doxo 10 mg/kg; ABT 50 mg/kg/day after Doxo
[6] = system: SCs; assay: Single-cell RNA sequencing of SCs from skeletal muscle of mice treated with PBS, Doxo or Doxo + ABT (differential gene expression); conditions: four-month-old male mice; Doxo 10 mg/kg i.p.; ABT 50 mg/kg/day by gavage, 2 cycles of 5 days
[7] = system: FAPs; assay: Single-cell RNA sequencing of FAPs from skeletal muscle of mice treated with PBS, Doxo or Doxo + ABT (differential gene expression); conditions: for senescent FAPs in mouse skeletal muscle (scRNA seq): four-month-old male mice, Doxo 10 mg/kg i.p., ABT 50 mg/kg/day by gavage, 2 cycles of 5 days
[8] = system: FAPs; assay: Cell viability assay (cell counting kit-8) of senescent and non-senescent FAPs treated with inhibitors; format: cell-based, mouse; conditions: for viability of senescent versus non-senescent FAPs: Doxo-induced senescence, viability on day 5, 25HC at concentrations between 0.1 and 1 μM; for IC50: FAPs
Method: (§2) Figure 3 25HC is a senolytic in multiple muscle cell types (A) Targets, compounds, and mechanisms. (B) Timeline of cell viability assay with inhibitors. Cells were pre-cultured for 24 h, treated with Doxo for 24 h, and then treated with inhibitors. Cell viability was analyzed from day 0–7. (C–E) Effects of inhibitors on viability of FAPs, SCs, and HSMMs. Cells were treated with inhibitors at the indicated concentrations. Cell viability was analyzed on day 3 (HSMMs) or 5 (FAPs and SCs). Blue and red dots indicate non-senescent (NS) and senescent (SEN), respectively. The average value at 0 μM for each group was set at 100% cell viability. p values versus NS were obtained using unpaired two-tailed Student’s t test. ∗p < 0.05, ∗∗p < 0.01, and ∗∗∗p < 0.001.
(§3) Figure 4 EC50 fitted curves (triplicates) of inhibitor effects at 3 and 7 days in FAPS and SCs EC50 was defined as the concentration of inhibitors that provokes a response halfway between baseline and maximum senolytic activity. EC50 values were determined by four- parameter logistic modeling using GraphPad Prism 8.0.
(§4) Hind limb muscles were digested in DMEM containing 0.5% (w/v) collagenase type II (Worthington) for 90 min at 37 °C with trituration and passed through a 40-μm nylon mesh. Erythrocytes were eliminated by treating with BD Pharm Lyse (BD Biosciences). Cells were resuspended in a washing buffer of PBS with 2% FBS and stained with antibodies for 30 min at 4 °C as described ([Kamizaki et al., 2017]). FAPs and SCs were isolated from the suspension by FACS (Aria II, BD Biosciences) using anti-CD31, CD45, Sca-1, PDGFR and VCAM1 antibodies. FAPs were identified as Sca1/PDGFR-positive and CD31-, CD45- and VCAM1-negative cells ([Uezumi et al., 2010]). SCs were identified as VCAM1-positive and CD31-, CD45-, Sca-1 and PDGFR-negative cells ([Liu et al., 2015]).
(§5) All experiments were performed in incubators at 37 °C, 3% O2 and 5% CO2. Senescence was induced by treatment with either Doxo (250 nM for 24 h) ([Demaria et al., 2017]) or X-irradiation (10 Gy) ([Limbad et al., 2020]). For cell culture studies using 25HC, it was used at the indicated concentrations in the media.
(§6) FAPs and SCs were cultured on Matrigel-coated dishes (BD Biosciences) in growth medium (GM) consisting of DMEM plus 10% FBS, 1% penicillin-streptomycin and 10% MyoCult (STEMCELL Technologies) for 7 days. Human myogenic cell HSMMs (Lonza) were maintained according to the manufacturer’s instructions with SkGM-2 medium (Lonza).
(§7) Cell viability was assessed using a cell counting kit-8 from Dojindo Molecular Technologies, Inc (Cat CK04-20). Cells were incubated with culture media + 10% kit cell viability reagent, 150 μL/well in 96-well plates for 2 h. The supernatant was transferred to a new 96-well plate and absorbance read at 450 nm as recommended in the product datasheet.

[9] = system: SCs; assay: Cell viability assay (cell counting kit-8) of senescent and non-senescent SCs treated with inhibitors; format: cell-based, mouse; conditions: for viability of senescent versus non-senescent SCs: Doxo-induced senescence, viability on day 5
Method: as §2, §3, §4, §5, §6, §7

[10] = system: human skeletal muscle myoblasts (HSMMs); assay: Cell viability assay (cell counting kit-8) of senescent and non-senescent HSMMs treated with inhibitors; format: cell-based; conditions: for viability of senescent versus non-senescent HSMMs: Doxo-induced senescence, viability on day 3; for IC50: Homo sapiens, Myoblast, HSMM
Method: as §2, §5, §6, §7

[11] = system: mouse dermal fibroblasts (mDFs); assay: Cell viability assay of NS and SEN mouse dermal fibroblasts treated with CRYAB and HMOX1 inhibitors; format: cell-based; conditions: 250 nM Doxo-induced senescence; after 72 h of treatment; 25HC at five or 10 μM
Method: The average value of DMSO was set at 1. (B and D) Effects of CRYAB and HMOX1 inhibitors on DMSO-treated NS or Doxo-treated SEN cells; (B) mDFs, (D) IMR-90s. Cells were treated with the inhibitors at the indicated concentrations. Cell viability was measured after 72 h. (C) IMR-90 qRT-PCR. For qPCR: mean +/- SE, n =4, ∗p< 0.05, ∗∗p< 0.01, ∗∗∗p<0.001, ∗∗∗∗p<0.0001 by Dunnett’s multiple comparisons test vs DMSO. For cell viability assays: mean +/- SE, n =3, ∗∗p< 0.01, ∗∗∗p<0.001, ∗∗∗∗p<0.0001 vs 0 mM by student’s t test.
For skin sample collection, mice were euthanized, hair removed from dorsal skin and the area cleaned with alcohol. A small 1 cm x 1 cm region of skin was removed, and subcutaneous fat removed by scalpel. Skin was digested in 2–3 ml of 0.25% trypsin at 37 °C for 1 h. Hair and epidermis were further removed, and the dermis was minced into 2–3 mm pieces. Digestion of the sample in 5 ml of 1 mg/ml collagenase (Sigma, Cat#C5138) in HBSS (with Ca^++ and Mg^++) (Gibco, cat#24020117) was carried out at 37 °C on a shaker for 1 h. Collagenase digestion was stopped by addition of 10 ml 10% FBS DMEM. Filtration of the homogenate through a 70-micron mesh was performed to remove undigested tissue. Differential centrifugation and washing were performed at 1200 rpm for 5 min, and the pellet was resuspended in 10% FBS DMEM then seeded in a six-well plate. Media were changed at 5 days after seeding and then every 3 days.
as §5, §7

Question: For `COc1cccc2c1C(=O)c1c(O)c3c(c(O)c1C2=O)C[C@@](O)(C(=O)CO)C[C@@H]3O[C@H]1C[C@H](N)[C@H](O)[C@H](C)O1` [Doxo, Doxorubicin], which “Cdkn1A mRNA in gastrocnemius and soleus muscles” value [1] is on record?
Answer: significantly increased

Question: And the body weight [2]?
Answer: significantly decreased

Question: What about the “gastrocnemius muscle weight normalized to body weight” value [2] of the same molecule?
Answer: no difference

Question: And the “senescence induction in cultured FAPs” value [3]?
Answer: induced senescence

Question: And the “senescence induction in cultured SCs” value [4]?
Answer: induced senescence

Question: What about the “burden of senescent cells in mice” value [5] of the same molecule?
Answer: induced senescence

Question: What about the “senescent SCs in mouse skeletal muscle (scRNA seq)” value [6] of the same molecule?
Answer: induces senescence

Question: And the “senescent FAPs in mouse skeletal muscle (scRNA seq)” value [7]?
Answer: induces senescence

Question: Which “viability of senescent versus non-senescent FAPs” value [8] does the source give for `Brc1ccc(CCC2(Cn3ccnc3)OCCO2)cc1.Cl` [OB24] here?
Answer: slightly but significantly decreased the viability of FAPs

Question: What about the IC50 ([8]; 7 days in culture) of the same molecule?
Answer: 261 µM

Question: What about the “viability of senescent versus non-senescent SCs” value [9] of the same molecule?
Answer: no difference in killing

Question: What about the “viability of senescent versus non-senescent HSMMs” value [10] of the same molecule?
Answer: significantly decreased cell viability

Question: What about the “senolysis in mDF cells” value [11] of the same molecule?
Answer: ineffective

Question: With `CC1(C)CCC(c2ccc(Cl)cc2)=C(CN2CCN(c3ccc(C(=O)NS(=O)(=O)c4ccc(N[C@H](CCN5CCOCC5)CSc5ccccc5)c(S(=O)(=O)C(F)(F)F)c4)cc3)CC2)C1` [ABT263] as the molecule, how does the IC50 ([8]; Mus musculus, 72 h, 3 days in culture) read?
Answer: 14.7 µM

Question: What about the IC50 ([8]; Mus musculus, 168 h, 7 days in culture) of the same molecule?
Answer: 7.5 µM

Question: What about the IC50 ([9]; Mus musculus, 168 h, SCs, 7 days in culture) of the same molecule?
Answer: 14.1 µM

Question: What about the IC50 ([10]; 72 h, 3 days in culture) of the same molecule?
Answer: 15.2 µM

Question: What about the IC50 ([10]; 168 h, 7 days in culture) of the same molecule?
Answer: 9 µM

Question: And the “burden of senescent cells in mice” value [5]?
Answer: reduced burden of senescent cells

Question: And the “senescent SCs in mouse skeletal muscle (scRNA seq)” value [6]?
Answer: reduces the fraction

Question: And the “senescent FAPs in mouse skeletal muscle (scRNA seq)” value [7]?
Answer: reduces the fraction

Question: And the “avg_logFC of gene Capza2” value ([7]; sheet abt_down, gene Capza2, cluster c7, scRNA-seq differential expression)?
Answer: -0.2501

Question: And the “avg_logFC of gene Coq10b” value ([7]; sheet abt_down, gene Coq10b, cluster c7, scRNA-seq differential expression)?
Answer: -0.25

Question: And the “avg_logFC of gene Hes1” value ([7]; sheet abt_down, gene Hes1, cluster c1, scRNA-seq differential expression)?
Answer: -0.2504

Question: And the “avg_logFC of gene Pds5b” value ([7]; sheet abt_down, gene Pds5b, cluster c9, scRNA-seq differential expression)?
Answer: -0.2501

Question: What about the “avg_logFC of gene Qpct” value ([7]; sheet abt_down, gene Qpct, cluster c3, scRNA-seq differential expression) of the same molecule?
Answer: -0.2504

Question: And the “avg_logFC of gene Creld2” value ([7]; sheet abt_up, gene Creld2, cluster c4, scRNA-seq differential expression)?
Answer: 0.8182

Question: And the “avg_logFC of gene Cxcl14” value ([7]; sheet abt_up, gene Cxcl14, cluster c5, scRNA-seq differential expression)?
Answer: 0.8906

Question: And the “avg_logFC of gene Myl9” value ([7]; sheet abt_up, gene Myl9, cluster c9, scRNA-seq differential expression)?
Answer: 0.9071

Question: What about the “avg_logFC of gene Plac8” value ([7]; sheet abt_up, gene Plac8, cluster c3, scRNA-seq differential expression) of the same molecule?
Answer: 0.7972

Question: What about the “avg_logFC of gene Tpm2” value ([7]; sheet abt_up, gene Tpm2, cluster c9, scRNA-seq differential expression) of the same molecule?
Answer: 1.1381

Question: For `O=C(CC(c1ccccc1)c1ccccc1)Cn1ccnc1` [QC-308], which “viability of senescent versus non-senescent FAPs” value [8] is on record?
Answer: slightly but significantly decreased the viability of FAPs

Question: What about the “viability of senescent versus non-senescent SCs” value [9] of the same molecule?
Answer: no difference in killing

Question: And the “viability of senescent versus non-senescent HSMMs” value [10]?
Answer: significantly decreased cell viability

Question: What about the “senolysis in mDF cells” value [11] of the same molecule?
Answer: ineffective
